# Data: patent US7297704B2, “Cycloalkyfused indole, benzothiophene, benzofuran and idene derivatives” (Wyeth, priority 2005, dated 2007)
# Structures can show the parent of a compound that is named as a salt. Where two headings read alike, the source gives them in different places.
# What was measured:
# h-5-HT-T = h-5-HT-T (Homo sapiens, UniProt P31645); assay: h-5-HT-T IC50 (Table 1, no method described)
# serotonin transporter = target: T1, serotonin transporter (Rattus norvegicus, UniProt P31652); assay: 3H-paroxetine binding to the serotonin transporter, rat frontal cortical membranes; conditions: values printed without parentheses, 3H-paroxetine 0.1 nM, read-out: rb-5-HH-T, Ki
# T1 construct: frontal cortical membranes prepared from male S.D. rats; from tissue; host or cells: rat frontal cortex membranes (male Sprague-Dawley)
# T1 sequence (P31652 whole entry): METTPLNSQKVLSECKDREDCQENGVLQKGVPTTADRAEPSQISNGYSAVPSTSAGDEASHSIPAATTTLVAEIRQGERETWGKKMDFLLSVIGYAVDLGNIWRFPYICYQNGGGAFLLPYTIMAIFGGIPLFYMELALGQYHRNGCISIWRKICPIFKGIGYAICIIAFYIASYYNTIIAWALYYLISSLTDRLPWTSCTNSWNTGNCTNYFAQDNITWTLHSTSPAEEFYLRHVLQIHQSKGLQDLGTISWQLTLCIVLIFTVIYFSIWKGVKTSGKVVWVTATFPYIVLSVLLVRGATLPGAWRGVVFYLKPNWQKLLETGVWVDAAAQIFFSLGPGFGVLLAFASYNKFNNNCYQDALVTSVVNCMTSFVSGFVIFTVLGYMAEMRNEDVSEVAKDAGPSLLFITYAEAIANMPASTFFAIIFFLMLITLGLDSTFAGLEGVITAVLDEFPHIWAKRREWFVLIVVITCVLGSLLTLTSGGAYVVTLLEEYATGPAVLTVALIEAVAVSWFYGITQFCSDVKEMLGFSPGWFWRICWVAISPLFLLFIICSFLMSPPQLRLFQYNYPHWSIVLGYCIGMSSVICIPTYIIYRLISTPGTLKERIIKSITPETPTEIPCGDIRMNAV
# Procedure: A protocol similar to that used by Cheetham et al. (Neuropharmacol. 32:737, 1993) was used to determine the affinity of compounds for the serotonin transporter. Briefly, frontal cortical membranes prepared from male S.D. rats were incubated with ^3H-paroxetine (0.1 nM) for 60 min at 25° C. All tubes also contained either vehicle, test compound (one to eight concentrations), or a saturating concentration of fluoxetine (10 μM) to define […]. All reactions are terminated by the addition of ice cold Tris buffer followed by rapid filtration using a Tom Tech filtration device to separate bound from free ^3H-paroxetine. Bound radioactivity was quantitated using a Wallac 1205 Beta Plate® counter. Nonlinear regression analysis was used to determine IC50 values which were converted to Ki values using the method of Cheng and Prusoff (Biochem. Pharmacol. 22: 3099, 1973); […].
# Human 5-HT1A Receptor [1] = target: T2, Human 5-HT1A Receptor (Homo sapiens, UniProt P08908); assay: cAMP RIA in human 5-HT1A receptor cell line; format: cell-based; conditions: CHO cells; for Emax: superscript c, read-out: c-AMP, (Emax)^c; for Emax / EC50: forskolin stimulated cAMP; for EC50: superscript a, read-out: c-AMP, (EC50)^a; for IC50: superscript b, reversal of agonist activity, read-out: c-AMP, (IC50)^b
# T2 construct: expressed in transfected cells; host or cells: CHO cells
# T2 sequence (P08908 1-422): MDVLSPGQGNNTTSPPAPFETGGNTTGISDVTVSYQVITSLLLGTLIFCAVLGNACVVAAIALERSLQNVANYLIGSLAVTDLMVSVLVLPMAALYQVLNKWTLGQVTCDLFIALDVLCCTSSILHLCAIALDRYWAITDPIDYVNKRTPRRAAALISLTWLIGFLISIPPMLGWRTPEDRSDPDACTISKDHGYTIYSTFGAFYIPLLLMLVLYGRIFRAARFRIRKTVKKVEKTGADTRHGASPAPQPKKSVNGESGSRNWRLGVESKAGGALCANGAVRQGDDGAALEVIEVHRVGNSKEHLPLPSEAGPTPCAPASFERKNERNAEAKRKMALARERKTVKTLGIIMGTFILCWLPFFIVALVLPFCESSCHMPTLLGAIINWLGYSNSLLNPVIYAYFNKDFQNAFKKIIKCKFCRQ
# Procedure: Stably transfected CHO cells were grown in DMEM containing 10% heat inactivated FBS and non-essential amino acids. The cells were plated at a density of 10^6 cells per well in a 96 well plate and incubated for 2 days in a CO2 incubator. On the second day, the media was replaced with 0.1 ml Krebs and incubated 15 minutes at 37° C. The media was then replaced with Krebs buffer containing 500 uM IBMX and incubated 5 minutes at 37° C. Wells were treated with forskolin (1 uM final conc) followed immediately by test compound (0.1 and 1 uM for initial screen) and incubated for an additional 10 min at 37° C. Reaction was terminated by removal of the media and addition of 0.5 ml ice cold assay buffer (supplied in RIA kit). Plates are stored at −20° C. prior to assessment of cAMP formation by RIA. Compounds shown to have no agonist activities were further analyzed for ability to reverse agonist activity. In separate experiments, 6 concentrations of antagonist were preincubated for 20 min prior to the addition of agonist and forskolin. Cells were harvested as described. The cAMP kit is supplied by Amersham and the RIA is performed as per kit instructions. In the initial screen, percent inhibition of forskolin stimulated cAMP was measured. In the secondary screen, IC50 of reversal of agonist activity was measured. Calculations of IC50 were performed by GraphPad Prism. Serotonin, BMY 7378, Buspirone, and 8-OH-DPAT were used as reference compounds.
# Human 5-HT1A Receptor [2] = target: T2, Human 5-HT1A Receptor; assay: 8-OH-DPAT binding, human 5-HT1A receptor cell line; conditions: stably transfected CHO cells, 8-OH-DPAT ligand 1.5 nM; read-out: h5-HT1A Affinity, Ki
# Procedure: Stably transfected CHO cells were grown in DMEM containing 10% heat inactivated FBS and non-essential amino acids. Cells were scraped off the plate, transferred to centrifuge tubes, and washed twice by centrifugation (2000 rpm for 10 min., 4° C.) in buffer (50 mM Tris, pH 7.5). The resulting pellets were aliquoted and placed at −80° C. On day of assay, the cells were thawed on ice, and resuspended in buffer. The binding assay was performed in a 96 well microtiter plate in a total volume of […]. Non-specific binding was determined in the presence of […] 5HT; final ligand concentration was 1.5 nM. Following a 30 min. incubation at room temperature, the reaction was terminated by the addition of ice cold buffer and rapid filtration through a GF/B filter presoaked for 30 min. in 0.5% PEI. Compounds were initially tested in a single point assay to determine percent inhibition at […]. Subsequently, Ki values were determined for compounds defined to be active. Percent inhibition Ki was determined by RFComp (Lundon Software), with Serotonin 8-OH-DPAT as the reference compounds.
# Chain of h-5-HT-T (P31645 whole entry): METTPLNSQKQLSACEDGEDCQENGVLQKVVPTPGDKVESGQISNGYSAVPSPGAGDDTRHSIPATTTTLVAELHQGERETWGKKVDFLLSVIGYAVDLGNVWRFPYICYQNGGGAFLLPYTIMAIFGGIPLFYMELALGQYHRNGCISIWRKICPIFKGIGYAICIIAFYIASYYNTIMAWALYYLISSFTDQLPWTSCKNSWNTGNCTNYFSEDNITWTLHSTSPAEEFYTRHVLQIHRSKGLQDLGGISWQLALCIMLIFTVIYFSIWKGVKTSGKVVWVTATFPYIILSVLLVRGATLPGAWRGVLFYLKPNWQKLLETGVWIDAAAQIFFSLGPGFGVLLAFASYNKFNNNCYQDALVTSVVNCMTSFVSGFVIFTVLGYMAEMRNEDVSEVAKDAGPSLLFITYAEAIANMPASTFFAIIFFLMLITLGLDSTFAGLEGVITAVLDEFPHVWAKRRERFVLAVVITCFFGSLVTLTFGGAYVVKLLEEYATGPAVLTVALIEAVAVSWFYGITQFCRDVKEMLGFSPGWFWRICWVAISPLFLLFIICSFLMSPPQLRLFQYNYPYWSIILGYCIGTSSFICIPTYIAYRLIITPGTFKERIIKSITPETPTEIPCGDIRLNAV
Emax (Human 5-HT1A Receptor [1]; CHO) [%],IC50 (Human 5-HT1A Receptor [1]) [nM],SMILES,IC50 (h-5-HT-T) [nM],Ki (serotonin transporter) [nM],EC50 (Human 5-HT1A Receptor [1]) [nM],Ki (Human 5-HT1A Receptor [2]) [nM],Emax (Human 5-HT1A Receptor [1]) [%]
70,–,"Cc1ccc2c3c(ccc2n1)OC[C@H](CNC1CCc2c([nH]c4ccc(F)cc24)C1)O3 (mixture of isomers) [Example 46, 6-Fluoro-N-{[(2S)-8-methyl-2,3-dihydro[1,4]dioxino[2,3-f]quinolin-2-yl]methyl}-2,3,4,9-tetrahydro-1H-carbazol-2-amine]",52.5 ± 1.73,8.55,155,231,–
–,17.7,"Cc1ccc2c3c(ccc2n1)OC[C@H](CNCC1CCc2sc4ccccc4c2C1)O3 (single isomer, unassigned) [32 diastereomer 2]",885,47.6,–,6.49,–
–,–,"Cc1ccc2c3c(ccc2n1)OC[C@H](CN[C@@H]1CCc2c([nH]c4ccccc24)C1)O3 (single isomer, unassigned) [Example 44, dihydrochloride]",22.1 ± 2.51,–,225,620,74
–,–,"Cc1ccc2c3c(ccc2n1)OC[C@H](CN[C@@H]1CCc2c([nH]c4ccc(F)cc24)C1)O3 (single isomer, unassigned) [Example 47, dihydrochloride]",102 ± 7.07,12.8,300,186,59
–,168,"Cc1ccc2c3c(ccc2n1)OC[C@H](CN[C@H]1CCc2c([nH]c4ccc(F)cc24)C1)O3 (single isomer, unassigned) [Example 48, dihydrochloride]",31.9 ± 5.34,46.7 ± 2.07,–,7.4,–
–,–,"CCCN(CC1CCc2[nH]c3ccc(F)cc3c2C1)C[C@H]1COc2ccc3nc(C)ccc3c2O1 (stereo partly drawn) [Example 51, N-[(6-Fluoro-2,3,4,9-tetrahydro-1H-carbazol-3-yl)methyl]-N-{[(2S)-8-methyl-2,3-dihydro[1,4]dioxino[2,3-f]quinolin-2-yl]methyl}propan-1-amine dihydrochloride dihydrate]",22.3 ± 3.32,88,171,1290,59
–,–,"Cc1ccc2c3c(ccc2n1)OC[C@H](CN(CC1CCc2[nH]c4ccc(F)cc4c2C1)C1CCC1)O3 (stereo partly drawn) [Example 53, N-[(6-Fluoro-2,3,4,9-tetrahydro-1H-carbazol-3-yl)methyl]-N-{[(2S)-8-methyl-2,3-dihydro[1,4]dioxino[2,3-f]quinolin-2-yl]methyl}cyclobutanamine dihydrochloride dihydrate]",39.1 ± 3.85,498,126,5740,68
–,–,"Cc1ccc2c3c(ccc2n1)OC[C@H](CN(C[C@@H]1CCc2[nH]c4ccc(F)cc4c2C1)C(C)C)O3 [Example 57, N-{[(3R)-6-Fluoro-2,3,4,9-tetrahydro-1H-carbazol-3-yl]methyl}-N-{[(2S)-8-methyl-2,3-dihydro[1,4]dioxino[2,3-f]quinolin-2-yl]methyl}propan-2-amine monohydrochloride monohydrate]",1130 ± 109,1570,–,6140,–
–,–,"CCC(C)N(C[C@@H]1CCc2[nH]c3ccc(F)cc3c2C1)C[C@H]1COc2ccc3nc(C)ccc3c2O1 (stereo partly drawn) [Example 58, N-{[(3R)-6-Fluoro-2,3,4,9-tetrahydro-1H-carbazol-3-yl]methyl}-N-{[(2S)-8-methyl-2,3-dihydro[1,4]dioxino[2,3-f]quinolin-2-yl]methyl}butan-2-amine monohydrochloride monohydrate]",113 ± 22.5,358,–,1190,22
–,–,"Cc1ccc2c3c(ccc2n1)OC[C@H](CN(C[C@@H]1CCc2[nH]c4ccc(F)cc4c2C1)C1CCCC1)O3 [Example 59, N-{[(3R)-6-Fluoro-2,3,4,9-tetrahydro-1H-carbazol-3-yl]methyl}-N-{[(2S)-8-methyl-2,3-dihydro[1,4]dioxino[2,3-f]quinolin-2-yl]methyl}cyclopentanamine monohydrochloride monohydrate]",115 ± 16.4,362,431,3120,81
–,–,"Cc1ccc2c3c(ccc2n1)OC[C@H](CN(C[C@@H]1CCc2[nH]c4ccc(F)cc4c2C1)C1CCCCC1)O3 [Example 60, N-{[(3R)-6-fluoro-2,3,4,9-tetrahydro-1H-carbazol-3-yl]methyl}-N-{[(2S)-8-methyl-2,3-dihydro[1,4]dioxino[2,3-f]quinolin-2-yl]methyl}cyclohexanamine monohydrochloride monohydrate]",995 ± 24.4,394,–,–,–
–,–,"CCC(C)N(C[C@H]1CCc2[nH]c3ccc(F)cc3c2C1)C[C@H]1COc2ccc3nc(C)ccc3c2O1 (stereo partly drawn) [Example 62, N-{[(3S)-6-Fluoro-2,3,4,9-tetrahydro-1H-carbazol-3-yl]methyl}-N-{[(2S)-8-methyl-2,3-dihydro[1,4]dioxino[2,3-f]quinolin-2-yl]methyl}butan-2-amine monohydrochloride monohydrate]",730 ± 9.19,–,–,1960,–
–,–,"Cc1ccc2c3c(ccc2n1)OC[C@H](CN(C[C@H]1CCc2[nH]c4ccc(F)cc4c2C1)C1CCCC1)O3 [Example 63, N-{[(3S)-6-Fluoro-2,3,4,9-tetrahydro-1H-carbazol-3-yl]methyl}-N-{[(2S)-8-methyl-2,3-dihydro[1,4]dioxino[2,3-f]quinolin-2-yl]methyl}cyclopentanamine monohydrochloride monohydrate]",389 ± 38.2,113,1350,–,73
–,–,"Cc1ccc2c3c(ccc2n1)OC[C@H](CN(C[C@H]1CCc2[nH]c4ccc(F)cc4c2C1)C1CCCCC1)O3 [Example 64, N-{[(3S)-6-Fluoro-2,3,4,9-tetrahydro-1H-carbazol-3-yl]methyl}-N-{[(2S)-8-methyl-2,3-dihydro[1,4]dioxino[2,3-f]quinolin-2-yl]methyl}cyclohexanamine monohydrochloride monohydrate]",2490 ± 269,455,–,–,–
–,–,"Cc1ccc2c3c(ccc2n1)OC[C@H](CN(C)C[C@H]1CCc2c(c4cc(F)ccc4n2C)C1)O3 [Example 68, {[(3S)-6-Fluoro-9-methyl-2,3,4,9-tetrahydro-1H-carbazol-3-yl]methyl}methyl{[(2S)-8-methyl-2,3-dihydro[1,4]dioxino[2,3-f]quinolin-2-yl]methyl}amine monohydrochloride monohydrate]",15.2 ± 0.74,293,–,3720,34.8
